Data published in patent US20180251847A1, “METHOD OF PREDICTING THE TUMOR RESPONSE TO DNA METHYLATION INHIBITORS AND ALTERNATIVE THERAPEUTIC REGIMEN FOR OVERCOMING RESISTANCE” (PALACKY UNIVERSITY, OLOMOUC, priority 2014, published 2018).
Structures can show the parent of a compound that is named as a salt. Where two headings read alike, the source gives them in different places.

How the values were obtained:
Parameters in all cases: species or system human
HCT116 = test: MTT based cell survival assay, parental HCT116; details: read-out: Mean IC50
Method: To study the mechanism of resistance towards DNA methylation inhibitor, 2′-deoxy-5-azacytidine, we used the human colorectal cancer cell line (HCT116), human promyelocytic leukemia cells (HL-60), and human breast adenocarcinoma cell line (MCF-7) obtained from American Type Culture Collection (Manassas, Va.). The cell lines were cultured in complete growth media (Sigma-Aldrich, St. Louis, Mo.), supplemented with fetal bovine serum (FBS, PAN-Biotech GmbH, Aidenbach, Germany), 100 U/mL penicillin (Biotika, Slovenská L'upča, Slovak Republic) and 50 μg/mL streptomycin (Sigma-Aldrich), and the cultures were maintained at 37° C. and 5% CO2, in a humidified incubator. The cell line, HCT116 was grown in McCoy's 5 A medium supplemented with 10% FBS and 3 mM L-glutamine (Sigma-Aldrich), HL-60 was grown in Iscove's Modified Dulbecco's Medium with 20% FBS, and MCF-7 was grown in RPMI-1640 medium with 10% FBS.
The method is primarily based on reduction of yellow colored tetrazolium salt, 3-(4,5-dimethylthiazol-2-yl)-2,5-diphenyltetrazolium bromide (MTT) to insoluble purple colored formazan crystals by NAD(P)H-dependent oxidoreductase enzymes in mitochondria of the viable cell. The intensity of the purple color produced on solubilization of the formazan crystals is directly proportional to the number of viable cells (Meerloo J. V. et al., Methods in Molecular Biology 2011; 731, 237-45).
To determine the IC50 of the epigenetic drugs (Tocris Bioscience, Bristol, United Kingdom), four independent experiments were performed using triplicate wells of 96 well plates. Cells in 80 μL of medium were plated in each of the experimental and the control wells, followed by addition of 20 μL medium with five-fold drug concentration to experimental wells. The wells with medium alone were included alongside as blank for absorbance readings. […], 10 μL MTT (Sigma-Aldrich) prepared in 1×PBS (5 mg/mL) was added to all wells including blank and control, and incubated until the purple formazan crystals were visible after which 100 μL of detergent (10% SDS, pH: 5.5) was added and the plates were incubated overnight to solubilize the formazan and the cellular material.
(§1) Cross resistance was determined as the fold increase, whereas, the sensitivity was determined as the fold decrease in the IC50 of the drugs for the resistant cell lines compared to their genetically identical drug sensitive counterpart.

R1.1 (HCT116-RDAC) = test: MTT based cell survival assay, DAC resistant HCT116 clone R1.1; details: for IC50: read-out: Mean IC50; for fold change (resistance index): IC50 R1.1 / IC50 HCT116
Method: (§2) The DAC resistant HCT116 cell lines were developed using two methods.
(§3) The method is primarily based on reduction of yellow colored tetrazolium salt, 3-(4,5-dimethylthiazol-2-yl)-2,5-diphenyltetrazolium bromide (MTT) to insoluble purple colored formazan crystals by NAD(P)H-dependent oxidoreductase enzymes in mitochondria of the viable cell.
(§4) Cells in 80 μL of medium were plated in each of the experimental and the control wells, followed by addition of 20 μL medium with five-fold drug concentration to experimental wells. The wells with medium alone were included alongside as blank for absorbance readings. After 72 h of drug treatment, 10 μL MTT (Sigma-Aldrich) prepared in 1×PBS (5 mg/mL) was added to all wells including blank and control, and incubated until the purple formazan crystals were visible after which 100 μL of detergent (10% SDS, pH: 5.5) was added and the plates were incubated overnight to solubilize the formazan and the cellular material.
as §1

R1.2 (HCT116-RDAC) = test: MTT based cell survival assay, DAC resistant HCT116 clone R1.2; details: for IC50: read-out: Mean IC50; for fold change (resistance index): IC50 R1.2 / IC50 HCT116
Method: as §2, §3, §4, §1

R1.3 (HCT116-RDAC) = test: MTT based cell survival assay, DAC resistant HCT116 clone R1.3; details: for IC50: read-out: Mean IC50; for fold change (resistance index): IC50 R1.3 / IC50 HCT116
Method: as §2, §3, §4, §1

R1.4 (HCT116-RDAC) = test: MTT based cell survival assay, DAC resistant HCT116 clone R1.4; details: for IC50: read-out: Mean IC50; for fold change (resistance index): IC50 R1.4 / IC50 HCT116
Method: as §2, §3, §4, §1

R2.1 (HCT116-RDAC) = test: MTT based cell survival assay, DAC resistant HCT116 clone R2.1; details: for IC50: R2.1, MTT, 72 h drug treatment; for fold change (resistance index): IC50 R2.1 / IC50 HCT116
Method: as §2, §3, §4, §1

R2.2 (HCT116-RDAC) = test: MTT based cell survival assay, DAC resistant HCT116 clone R2.2; details: for IC50: read-out: Mean IC50; for fold change (resistance index): IC50 R2.2 / IC50 HCT116
Method: as §2, §3, §4, §1

[1] = Homo sapiens, HCT-116, HCT116 parental, MTT, 72 h drug treatment
[2] = Homo sapiens, HCT-116, R1.1, MTT, 72 h drug treatment
[3] = Homo sapiens, HCT-116, R1.2, MTT, 72 h drug treatment
[4] = Homo sapiens, HCT-116, R1.3, MTT, 72 h drug treatment
[5] = Homo sapiens, HCT-116, R1.4, MTT, 72 h drug treatment
[6] = Homo sapiens, HCT-116, R2.2, MTT, 72 h drug treatment
[7] = HCT116 parental, MTT, 72 h drug treatment

Row | Structure (SMILES) | IC50 (HCT116; [1]) | IC50 (R1.1 (HCT116-RDAC); [2]) | fold change (resistance index) (R1.1 (HCT116-RDAC)) | IC50 (R1.2 (HCT116-RDAC); [3]) | fold change (resistance index) (R1.2 (HCT116-RDAC)) | IC50 (R1.3 (HCT116-RDAC); [4]) | fold change (resistance index) (R1.3 (HCT116-RDAC)) | IC50 (R1.4 (HCT116-RDAC); [5]) | fold change (resistance index) (R1.4 (HCT116-RDAC)) | IC50 (R2.1 (HCT116-RDAC); Homo sapiens, HCT-116) | fold change (resistance index) (R2.1 (HCT116-RDAC)) | IC50 (R2.2 (HCT116-RDAC); [6]) | fold change (resistance index) (R2.2 (HCT116-RDAC)) | IC50 (HCT116; [7]) | IC50 (R1.1 (HCT116-RDAC); R1.1, MTT, 72 h drug treatment) | IC50 (R1.2 (HCT116-RDAC); R1.2, MTT, 72 h drug treatment) | IC50 (R1.3 (HCT116-RDAC); R1.3, MTT, 72 h drug treatment) | IC50 (R1.4 (HCT116-RDAC); R1.4, MTT, 72 h drug treatment) | IC50 (R2.1 (HCT116-RDAC)) | IC50 (R2.2 (HCT116-RDAC); R2.2, MTT, 72 h drug treatment) | other results
1 | Nc1ncn([C@@H]2O[C@H](CO)[C@@H](O)[C@H]2O)c(=O)n1 [AZA, 5-azacytidine] | 3.02 µM | 9.36 µM | (3.10) fold | 11.7 µM | (3.87) fold | 10.6 µM | (3.50) fold | 14.9 µM | (4.92) fold | 12.3 µM | (4.07) fold | 14.5 µM | (4.19) fold | – | – | – | – | – | – | – | –
2 | O=C(O)c1ccc(O)c2ncccc12 [IOX1] | – | – | (1.41) fold | – | (2.15) fold | – | (1.80) fold | – | (1.96) fold | – | (1.70) fold | – | (1.93) fold | 29.6 µM | 41.6 µM | 63.6 µM | 53.2 µM | 58.1 µM | 50.2 µM | 57 µM | –
3 | CC1=NN(c2ccc(C(=O)O)cc2)C(=O)/C1=C\c1ccc(-c2cc(C)c(C)cc2[N+](=O)[O-])o1 [C646] | – | – | (1.35) fold | – | (1.51) fold | – | (1.42) fold | – | (1.53) fold | – | (1.52) fold | – | (1.64) fold | 33.5 µM | 45.1 µM | 50.6 µM | 47.5 µM | 51.3 µM | 51 µM | 55 µM | –
4 | C/C=C1\NC(=O)[C@H]2CSSCC/C=C/[C@H](CC(=O)N[C@H](C(C)C)C(=O)N2)OC(=O)[C@H](C(C)C)NC1=O [Romidepsin] | – | – | (1.14) fold | – | (1.77) fold | – | (1.18) fold | – | (1.14) fold | 0.0054 µM | (1.95) fold | – | (2.64) fold | – | – | – | – | – | – | – | IC50 (HCT116; Homo sapiens, HCT-116, 72 h): 0.0028 µM; IC50 (R1.1 (HCT116-RDAC); Homo sapiens, HCT-116, 72 h): 0.0031 µM; IC50 (R1.2 (HCT116-RDAC); Homo sapiens, HCT-116, 72 h): 0.0049 µM; IC50 (R1.3 (HCT116-RDAC); Homo sapiens, HCT-116, 72 h): 0.0033 µM; IC50 (R1.4 (HCT116-RDAC); Homo sapiens, HCT-116, 72 h): 0.0031 µM; IC50 (R2.2 (HCT116-RDAC); Homo sapiens, HCT-116, 72 h): 0.0073 µM
5 | Cl.Nc1nccc2c1ncn2[C@@H]1C=C(CO)[C@@H](O)[C@H]1O [DZNep, 3-Deazaneplanocin A hydrochloride] | – | – | (30.34) fold | – | (30.34) fold | – | (30.34) fold | – | (30.34) fold | – | (30.34) fold | – | (30.34) fold | 0.82 µM | – | – | – | – | – | – | –
6 | CCOC(=O)CCNc1cc(N2CCc3ccccc3CC2)nc(-c2ccccn2)n1 [GSK J4] | – | – | (1.52) fold | – | (1.30) fold | – | (1.39) fold | – | (1.34) fold | – | (2.11) fold | – | (1.87) fold | 2.28 µM | 3.45 µM | 2.95 µM | 3.18 µM | 3.05 µM | 4.81 µM | 4.25 µM | –
7 | O=c1ncccn1[C@@H]1O[C@H](CO)[C@@H](O)[C@H]1O [Zebularine] | 84.2 µM | ≥ 100 µM | (1.19) fold | ≥ 100 µM | (1.19) fold | ≥ 100 µM | (1.19) fold | ≥ 100 µM | (1.19) fold | ≥ 100 µM | (1.19) fold | ≥ 100 µM | (1.19) fold | – | – | – | – | – | – | – | –
8 | CCCCCCCCCCCCCCCc1cccc(O)c1C(=O)O [Ancardic acid, Anacardic acid] | – | – | (1.07) fold | – | (1.06) fold | – | (1.04) fold | – | (1.02) fold | – | (1.03) fold | – | (1.04) fold | 120 µM | 128 µM | 127 µM | 125 µM | 122 µM | 124 µM | 125 µM | –
9 | COc1cc2nc(N3CCCN(C)CC3)nc(NC3CCN(Cc4ccccc4)CC3)c2cc1OC [BIX-01294] | 2.55 µM | 3 µM | (1.17) fold | 3.02 µM | (1.19) fold | 2.97 µM | (1.16) fold | 3.05 µM | (1.20) fold | 3.4 µM | (1.33) fold | 3.22 µM | (1.26) fold | – | – | – | – | – | – | – | –
10 | COc1cc2c(cc1-c1c(C)noc1C)ncc1[nH]c(=O)n([C@H](C)c3ccccn3)c12 [I-BET 151, I-BET 151 hydrochloride] | – | – | – | – | – | – | – | – | – | 3.16 µM | – | – | – | – | – | – | – | – | – | – | IC50 (HCT116; Homo sapiens, HCT-116, 72 h): 5.23 µM; IC50 (R1.1 (HCT116-RDAC); Homo sapiens, HCT-116, 72 h): 2.68 µM; fold change (sensitivity index) (R1.1 (HCT116-RDAC); IC50 HCT116 / IC50 R1.1): (1.95) fold; IC50 (R1.2 (HCT116-RDAC); Homo sapiens, HCT-116, 72 h): 5.18 µM; fold change (sensitivity index) (R1.2 (HCT116-RDAC); IC50 HCT116 / IC50 R1.2): (1.01) fold; IC50 (R1.3 (HCT116-RDAC); Homo sapiens, HCT-116, 72 h): 1.6 µM; fold change (sensitivity index) (R1.3 (HCT116-RDAC); IC50 HCT116 / IC50 R1.3): (3.28) fold; IC50 (R1.4 (HCT116-RDAC); Homo sapiens, HCT-116, 72 h): 3.58 µM; fold change (sensitivity index) (R1.4 (HCT116-RDAC); IC50 HCT116 / IC50 R1.4): (1.46) fold; fold change (sensitivity index) (R2.1 (HCT116-RDAC); IC50 HCT116 / IC50 R2.1): (1.65) fold; IC50 (R2.2 (HCT116-RDAC); Homo sapiens, HCT-116, 72 h): 5.4 µM; fold change (sensitivity index) (R2.2 (HCT116-RDAC); IC50 HCT116 / IC50 R2.2): (0.97) fold
